Tests used:
serotonin-2 receptor = experiment: Anti-serotonin action (anti-5-HT action): contraction of isolated superior mesenteric artery induced by serotonin; conditions: contraction induced by 10^−5 M serotonin (5-HT) taken as 100%, Hartley male guinea pig superior mesenteric artery; for Anti 5-HT action (% of Control) 10^−6 M: test drug 10^−6 M; for Anti 5-HT action (% of Control) 10^−7 M: test drug 10^−7 M
Description: (1) Anti-Serotonin Action (Anti-5-HT Action)
A preparation cut in a helical form was suspended under 0.3 g load in a Magnus cylinder filled with the Tyrode solution which had been aerated with a gas mixture of 95% O2+5% CO2 and maintained at 37° C. Using an isometric transducer (“UL-10”, manufactured by SHINKOH K.K.) and a pressure preamplifier (“DSA-605A”, manufactured by SHINKOH K.K.), variations in tension were measured. The isometric tensions were recorded on a pen-writing recorder (“VP-6537A”, manufactured by NATIONAL K.K.). Taking the contraction induced by 10^−5 M serotonin (5-HT) as 100%, the percent contractions in the presence of each test drug at 10^−7 and 10^−6 M were determined as anti-5-HT action.

α1 receptor = experiment: Anti-α1 action: tonic contraction of isolated thoracic aorta induced by norepinephrine; conditions: tonic contraction induced by 10^−5 M norepinephrine (NE) taken as 100%, Hartley male guinea pig thoracic aorta; for Anti α1 action (% of Control) 10^−7 M: test drug 10^−7 M; for Anti α1 action (% of Control) 10^−8 M: test drug 10^−8 M
Description: The thoracic aorta of each Hartley male guinea pig (body weight: 300-500 g) was excised. A preparation cut in a helical form was suspended under 1 g load in a Magnus cylinder filled with the Tyrode solution which had been aerated with a gas mixture of 95% O2+5% CO2 and maintained at 37° C. Using an isometric transducer (“TB-612J”, manufactured by NIHON KOHDEN) and a pressure preamplifier (“AP-620G”, manufactured by NIHON KOHDEN), variations in tension were measured. The isometric tensions were recorded on a thermal pen-writing recorder (“WT-647G”, manufactured by NIHON KOHDEN).
Taking the tonic contraction induced by 10^−5 M norepinephrine (NE) as 100%, the percent contractions upon addition of each test drug at 10^−8 and 10^−7 M were determined as anti-α1 action.

Row | Compound | Anti 5-HT action (% of Control) 10^−6 M (serotonin-2 receptor) | Anti 5-HT action (% of Control) 10^−7 M (serotonin-2 receptor) | Anti α1 action (% of Control) 10^−7 M (α1 receptor) | Anti α1 action (% of Control) 10^−8 M (α1 receptor)
1 | O=C(c1ccc(F)cc1)C1CCN(CCCN2CC3(OCCO3)c3ccccc3S2(=O)=O)CC1 [Compound No. 40, 2-[3-[4-(4-fluorobenzoyl)piperidino]-propyl]-3,4-dihydro-2H-1,2-benzothiazine-4-spiro-2′-(1′,3′-dioxolan) 1,1-dioxide] | 13.4 % of Control | 37.4 % of Control | 73.2 % of Control | 98.3 % of Control
2 | O=S1(=O)c2ccccc2C(O)CN1CCCN1CCN(c2ccc(F)cc2)CC1 (stereo not drawn) [Compound No. 77, 2-[3-[4-(4-fluorophenyl)piperazin-1-yl]propyl]-4-hydroxy-3,4-dihydro-2H-1,2-benzothiazine 1,1-dioxide] | 18.2 % of Control | 45.7 % of Control | 79.6 % of Control | 100 % of Control
3 | O=S1(=O)c2ccccc2C2(CN1CCCN1CCN(c3ccc(O)cc3)CC1)OCCO2 [Compound No. 37, 2-[3-[4-(4-hydroxyphenyl)piperazin-1-yl]propyl]-3,4-dihydro-2H-1,2-benzothiazin-4-one 1,1-dioxide ethylene acetal] | 8.3 % of Control | 15.7 % of Control | 96.2 % of Control | 100 % of Control
4 | COc1cccc2c1C1(CN(CCCN3CCN(c4ccc(F)cc4)CC3)S2(=O)=O)OCCO1 [Compound No. 110, 2-[3-[4-(4-fluorophenyl)piperazin-1-yl]propyl]-5-methoxy-3,4-dihydro-2H-1,2-benzothiazin-4-one 1,1-dioxide ethylene acetal] | – | 5.6 % of Control | 81.1 % of Control | 100 % of Control

Source: patent publication US6664251B2, “Benzothiazine derivative” (Daiichi Suntory Pharma Co., Ltd., priority 1993, dated 2003)
